How the values were obtained:
Type in all cases: cell-based
[1] = tested on: normal human skin fibroblasts; assay: collagen gel contraction promoting effect; details: one week, negative control = 1
Method: A collagen solution (collagen was used trade name I-AC manufactured by KOUKEN Co., Ltd.) dissolved in normal human skin fibroblasts (manufactured by KURABO INDUSTRIES LTD., 1×10^5 cells/ml) was prepared on ice according to the explanation insert attached to the product, and the collagen was gelled in 6 wells at 37° C. Thereafter, 0.25% FBS/DMEM medium containing a sample ([…]) was added. The gel was detached from the dish wall, and the level of contraction of the gelled collagen was examined. As a positive control, DMEM medium containing 10% FBS instead of 0.25% FBS was used. The medium was changed every 2 days and, one week later, the medium was removed by suction. The diameter of the collagen gel was measured, the area was calculated, and the area ratio was compared to that of the negative control as 1.

human normal melanocytes = assay: melanin formation suppression test in human melanocytes (L-DOPA, absorbance 495 nm); details: 5 days, relative value, without addition of sample = 100
Method: A melanin formation suppression test was performed using human melanocytes (manufactured by KURABO INDUSTRIES LTD.). That is, human normal melanocytes amplified in Medium 254 medium (human melanocyte medium added with HMGS, manufactured by KURABO INDUSTRIES LTD.) was added to a 96 well plate at 10^4 cells per well, and cultured in a carbon dioxide incubator adjusted to 5% (v/v) carbon dioxide gas at 37° C. for about 24 hr. Then, pure water or a sample (conagenin) dissolved in pure water was added thereto to a final concentration of 0.1 mM, 1.0 mM or 10 mM. As a positive control, kojic acid (manufactured by Sigma Ltd.) was added to the same concentration. The cells were cultured for 5 more days under the same conditions. To the recovered cells was added 50 μl of cell suspension (PBS buffer containing Triton X-100 at 0.1% (v/v)). After thorough suspending, the suspension was stood at 4° C. for 1 hr. Thereto was added 50 μl of 10 mM L-DOPA (manufactured by Nacalai Tesque), and the mixture was incubated at 37° C. for 1 hr. Thereafter, the absorbance at 495 nm was measured by a plate reader (multiscanplus MKII, manufactured by Japan Flow Laboratory), and the melanin formation amount was measured (shown in a relative value to the value without addition of sample as 100).

[2] = tested on: normal human skin fibroblasts; assay: type I collagen production promoting effect (PIP in culture supernatant) and cell count; details: for produced amount of collagen: 24 hr, relative value, negative control = 100, n=3 average; for number of cells: cells per well, counted visually after trypsin, negative control 4.9 × 10^5
Method: Normal human skin fibroblasts (manufactured by KURABO INDUSTRIES LTD.) were added to a 24 well plate at 5×10^4 cells per well. Using Medium 106S medium (manufactured by KURABO INDUSTRIES LTD.) containing 2% FBS, the cells were cultured under an atmosphere of 95% (V/V) air-5% (V/V) carbon dioxide gas at 37° C. for 24 hr. The medium was changed to Medium 106S medium (free of FBS) containing each sample, and the cells were cultured under the same conditions for 24 hr. After the completion of culture, the culture supernatant was taken to evaluate the type I collagen biosynthesizability and, to count the cells, the cells were harvested by a trypsin treatment. The samples used were two kinds of conagenin contents of 0.1 μM, 1 μm, 10 μM, 100 μM, 1 mM (final concentration), and magnesium L-ascorbyl phosphate (manufactured by Wako Pure Chemical Industries, Ltd., final concentration 100 μM) as a positive control (one added with PBS instead of the sample was used as a negative control).

[3] = tested on: normal skin fibroblasts derived from human; assay: fibroblast activating action evaluation test by the MTT reduction method; details: 48 hr culture, control = 100
Method: The present inventors performed a fibroblast activating action evaluation test by the MTT reduction method and using normal skin fibroblasts derived from human (see TIM Mosmann; Journal of Immunological Methods p 55-63, 1983).
Using DMEM (Gibco) containing 5% FBS (fetal bovine serum; purchased from NICHIREI CORPORATION), normal skin fibroblasts derived from human (manufactured by KURABO INDUSTRIES LTD.) were plated on a 96 well plate at a density of 2×10^4 cells/well, and cultured at 37° C., 5% CO2 for 24 hr. After removing the medium, the cells were washed with PBS(−) (NISSUI PHARMACEUTICAL CO., LTD.), the medium was changed to DMEM containing 1% FBS supplemented with each concentration of conagenin, and the cells were cultured at 37° C., 5% CO2. The blank was […] containing 1% FBS, which was free of test specimen. After culture for 48 hr, the absorbance at 550 nm was measured by MTT reduction method, based on which the MTT reduction amount was determined. The cell activation rate was shown in a percentage relative to the absorbance of additive-free cultured cell (control) as 100.

Question: Which “collagen gel area ratio” value ([1]; 1 μM in 0.25% FBS/DMEM) does the source give for C[C@@H]([C@@H](C)O)[C@@H](O)C(=O)N[C@@](C)(CO)C(=O)O [conagenin, (2S)—N-[(2R,3S,4R)2,4-dihydroxy-3-methyl-pentanoyl]-2-methylserine] here?
Answer: The value was 0.47.

Question: What about the “collagen gel area ratio” value ([1]; 100 μM in 0.25% FBS/DMEM) of the same compound?
Answer: The value was 0.44.

Question: And the “collagen gel area ratio” value ([1]; 5 mM in 0.25% FBS/DMEM)?
Answer: Its value is 0.42.

Question: And the melanin formation amount (human normal melanocytes; 100 μM)?
Answer: The melanin formation amount was 92.

Question: What about the melanin formation amount (human normal melanocytes; 1 mM) of the same compound?
Answer: The melanin formation amount was 66.

Question: And the melanin formation amount (human normal melanocytes; 10 mM)?
Answer: The melanin formation amount was 17.

Question: And the “produced amount of collagen” value ([2]; 0.1 μM)?
Answer: The value was 196.

Question: And the number of cells ([2]; 0.1 μM)?
Answer: Its number of cells is 5.1 × 10^5.

Question: What about the “produced amount of collagen” value ([2]; 1 μM) of the same compound?
Answer: The value was 197.

Question: What about the number of cells ([2]; 1 μM) of the same compound?
Answer: The number of cells was 5.1 × 10^5.

Question: What about the “produced amount of collagen” value ([2]; 10 μM) of the same compound?
Answer: Its value is 204.

Question: What about the number of cells ([2]; 10 μM) of the same compound?
Answer: Its number of cells is 5.2 × 10^5.

Question: What about the “produced amount of collagen” value ([2]; 100 μM) of the same compound?
Answer: The value was 208.

Question: And the number of cells ([2]; 100 μM)?
Answer: Its number of cells is 4.8 × 10^5.

Question: What about the “produced amount of collagen” value ([2]; 1 mM) of the same compound?
Answer: Its value is 202.

Question: And the number of cells ([2]; 1 mM)?
Answer: Its number of cells is 4.7 × 10^5.

Question: And the cell activation rate ([3]; 0.01 μM)?
Answer: The cell activation rate was 105%.

Question: And the cell activation rate ([3]; 0.05 μM)?
Answer: Its cell activation rate is 120%.

Question: What about the cell activation rate ([3]; 0.1 μM) of the same compound?
Answer: Its cell activation rate is 125%.

Question: What about the cell activation rate ([3]; 1 μM) of the same compound?
Answer: The cell activation rate was 111%.

Question: What about the cell activation rate ([3]; 10 μM) of the same compound?
Answer: Its cell activation rate is 113%.

Question: What about the cell activation rate ([3]; 40 μM) of the same compound?
Answer: The cell activation rate was 124%.

Question: And the cell activation rate ([3]; 80 μM)?
Answer: The cell activation rate was 113%.

Question: What about the cell activation rate ([3]; 160 μM) of the same compound?
Answer: The cell activation rate was 113%.

Question: And the cell activation rate ([3]; 310 μM)?
Answer: The cell activation rate was 113%.
